# Patent US12083115B2, “Methods for treating neurological symptoms associated with lysosomal storage diseases” (Genzyme Corporation, priority 2020, dated 2024)
# Where two headings read alike, the source gives them in different places.
# Columns and labels:
# [1] = system: adult patients with Gaucher disease Type 3; assay: Clinical study in GD-3 patients: vMRI brain tissue volume (TBM analysis); format: in vivo, human; details: for Group A mean change in volume from Baseline to Week 52: Group A (eight patients), 15 mg/day + imiglucerase; for Patient 5 change in volume from Baseline to Week 52: Patient 5 (Compound 2 below LLOQ after 52 weeks)
# Description: Neurological function was further evaluated using volumetric magnetic resonance imaging (vMRI). The vMRI data was collected at screening sessions at baseline and after 52 weeks of the treatment regime for eight patients (“Group A”) and an additional isolated patient (Patient 5). Group A corresponds to the eleven patients described above, excluding Patient 5 and two other patients lacking analyzable vMRI data.
# vMRI data was obtained and subsequently analyzed using FreeSurfer anatomic parcellation and a Tensor-Based Morphometry (TBM) analysis cycle. FreeSurfer is an opensource software package for the analysis and visualization of structural and functional neuroimaging data developed by the Laboratory for Computational Neuroimaging. TBM analysis (also known as Jacobian Integration) consists in estimating the volume changes as captured within the deformation fields resulting from applying a symmetric deformable registration technique between a pair of MR scans (baseline and follow-up), using a non-linear symmetric log-demons deformation technique using robust cross-correlation metric to ensure invertibility of the transformation (symmetric process). The deformation field is then analyzed by computing the determinant of its Jacobian matrix, which is a measure of local volume change. An integration of the determinant over a region of interest provides an estimation of the change rate of the volume of this brain region over time.
# The overall pipeline takes as input a baseline (BL) and a follow-up (FU) image and consists of the following steps: • 1. Preprocessing and reformatting; • 2. Segmentation of baseline (BL) and follow-up (FU) using FreeSurfer; • 3. Multi-resolution rigid and affine registration of FU and BL to midspace; • 4. Symmetric deformable nonlinear registration between FU and BL; • 5. Jacobian image computation; • 6. Voxel-wise volume change computation; • 7. Region-wise volume change integration; and • 8. Output for the changes for regions of interest specified for the study.
# [2] = Study 2: ascending repeated-dose PK in healthy adults; format: in vivo, human; details: for AUC0-24, Geometric mean / AUC0-24, Mean / Cmax, Geometric mean / Cmax, Mean / tmax, median / CLR(0-24), Mean / CLss/F, Geometric mean / CLss/F, Mean / Ctrough, Geometric mean / Ctrough, Mean / CLR(0-24), Geometric mean / half-life: N = 9; for half-life: plasma
# Experimental: The study enrolled and randomized 36 healthy adults (19 men and 17 women) (n=9 each to group).
# Pharmacodynamic endpoints (plasma GL-1, GL-3, and GM3 concentrations) were assessed on Days 1-5, 8, 11, 13, and 14, at 0 hours […]; and on Day 15, at 24 hours after the Day 14 dose.
# [3] = repeated once-daily doses from 5-20 mg
compound,measurement,setting,value
"CC(C)(NC(=O)O[C@@H]1CN2CCC1CC2)c1csc(-c2ccc(F)cc2)n1 [Compound 2, (S)-quinuclidin-3-yl 2-(2-(4-fluorophenyl)thiazol-4-yl)propan-2-ylcarbamate]",whole brain tissue volume,"[1]; Group A, 52 weeks, FIG. 1",overall increase in whole brain tissue volume
same,Group A mean change in volume from Baseline to Week 52,[1]; Left Cuneus,+37.16 mm^3
same,Patient 5 change in volume from Baseline to Week 52,[1]; Left Cuneus,−23.9 mm^3
same,Group A mean change in volume from Baseline to Week 52,[1]; Left Entorhinal Cortex,+34.53 mm^3
same,Patient 5 change in volume from Baseline to Week 52,[1]; Left Entorhinal Cortex,+41.4 mm^3
same,Group A mean change in volume from Baseline to Week 52,[1]; Left Lingual,+50.08 mm^3
same,Patient 5 change in volume from Baseline to Week 52,[1]; Left Lingual,−60.0 mm^3
same,Group A mean change in volume from Baseline to Week 52,[1]; Left Pericalcarine Lobe,+18.46 mm^3
same,Patient 5 change in volume from Baseline to Week 52,[1]; Left Pericalcarine Lobe,−29.2 mm^3
same,Group A mean change in volume from Baseline to Week 52,[1]; Left Putamen,+94.70 mm^3
same,Patient 5 change in volume from Baseline to Week 52,[1]; Left Putamen,−51.7 mm^3
same,whole brain volume,"[1]; Patient 5 (did not successfully undergo the treatment regime), 52 weeks, FIG. 1",decrease in whole brain volume
same,Group A mean change in volume from Baseline to Week 52,[1]; Right Accumbens Area,+12.86 mm^3
same,Patient 5 change in volume from Baseline to Week 52,[1]; Right Accumbens Area,−52.1 mm^3
same,Group A mean change in volume from Baseline to Week 52,[1]; Right Amygdala,+60.78 mm^3
same,Patient 5 change in volume from Baseline to Week 52,[1]; Right Amygdala,−63.4 mm^3
same,Group A mean change in volume from Baseline to Week 52,[1]; Right Postcentral Lobe,+91.66 mm^3
same,Patient 5 change in volume from Baseline to Week 52,[1]; Right Postcentral Lobe,−63.4 mm^3
same,Group A mean change in volume from Baseline to Week 52,[1]; Right Putamen,+97.84 mm^3
same,Patient 5 change in volume from Baseline to Week 52,[1]; Right Putamen,−63.1 mm^3
same,Ctrough values over time,"[2]; 5, 10, or 20 mg once daily for 14 days",reached a plateau after Day 5
same,median time of plasma Cmax,"[2]; 5, 10, or 20 mg once daily for 14 days, Days 1 and 14",2 to 5 h
same,"AUC0-24, Geometric mean","[2]; Day 1, 5 mg once daily",292 ng·h/mL
same,"AUC0-24, Mean","[2]; Day 1, 5 mg once daily",296 ng·h/mL
same,"Cmax, Geometric mean","[2]; Day 1, 5 mg once daily",18.2 ng/mL
same,"Cmax, Mean","[2]; Day 1, 5 mg once daily",18.5 ng/mL
same,"tmax, median","[2]; Day 1, 5 mg once daily",5.00 h
same,"AUC0-24, Geometric mean","[2]; Day 1, 10 mg once daily",623 ng·h/mL
same,"AUC0-24, Mean","[2]; Day 1, 10 mg once daily",635 ng·h/mL
same,"Cmax, Geometric mean","[2]; Day 1, 10 mg once daily",37.8 ng/mL
same,"Cmax, Mean","[2]; Day 1, 10 mg once daily",38.5 ng/mL
same,"tmax, median","[2]; Day 1, 10 mg once daily",3.00 h
same,"AUC0-24, Geometric mean","[2]; Day 1, 20 mg once daily","1,080 ng · h/mL"
same,"AUC0-24, Mean","[2]; Day 1, 20 mg once daily","1,100 ng · h/mL"
same,"Cmax, Geometric mean","[2]; Day 1, 20 mg once daily",66.5 ng/mL
same,"Cmax, Mean","[2]; Day 1, 20 mg once daily",68.0 ng/mL
same,"tmax, median","[2]; Day 1, 20 mg once daily",3.07 h
same,"AUC0-24, Geometric mean","[2]; Day 14, 5 mg once daily",632 ng·h/mL
same,"AUC0-24, Mean","[2]; Day 14, 5 mg once daily",642 ng·h/mL
same,"CLR(0-24), Mean","[2]; Day 14, 5 mg once daily",1.55 L/h
same,"CLss/F, Geometric mean","[2]; Day 14, 5 mg once daily",5.9 L/h
same,"CLss/F, Mean","[2]; Day 14, 5 mg once daily",5.98 L/h
same,"Cmax, Geometric mean","[2]; Day 14, 5 mg once daily",36.5 ng/mL
same,"Cmax, Mean","[2]; Day 14, 5 mg once daily",37.0 ng/mL
same,"Ctrough, Geometric mean","[2]; Day 14, 5 mg once daily",19.0 ng/mL
same,"Ctrough, Mean","[2]; Day 14, 5 mg once daily",19.4 ng/mL
same,"tmax, median","[2]; Day 14, 5 mg once daily",3.00 h
same,"AUC0-24, Geometric mean","[2]; Day 14, 10 mg once daily","1,490 ng · h/mL"
same,"AUC0-24, Mean","[2]; Day 14, 10 mg once daily","1,550 ng · h/mL"
same,"CLR(0-24), Geometric mean","[2]; Day 14, 10 mg once daily",1.4 L/h
same,"CLR(0-24), Mean","[2]; Day 14, 10 mg once daily",1.49 L/h
same,"CLss/F, Geometric mean","[2]; Day 14, 10 mg once daily",5.0 L/h
same,"CLss/F, Mean","[2]; Day 14, 10 mg once daily",5.13 L/h
same,"Cmax, Geometric mean","[2]; Day 14, 10 mg once daily",86.0 ng/mL
same,"Cmax, Mean","[2]; Day 14, 10 mg once daily",89.7 ng/mL
same,"Ctrough, Geometric mean","[2]; Day 14, 10 mg once daily",47.5 ng/mL
same,"Ctrough, Mean","[2]; Day 14, 10 mg once daily",49.9 ng/mL
same,"tmax, median","[2]; Day 14, 10 mg once daily",2.00 h
same,"AUC0-24, Geometric mean","[2]; Day 14, 20 mg once daily","2,340 ng · h/mL"
same,"AUC0-24, Mean","[2]; Day 14, 20 mg once daily","2,420 ng · h/mL"
same,"CLR(0-24), Geometric mean","[2]; Day 14, 20 mg once daily",2.0 L/h
same,"CLR(0-24), Mean","[2]; Day 14, 20 mg once daily",2.07 L/h
same,"CLss/F, Geometric mean","[2]; Day 14, 20 mg once daily",6.4 L/h
same,"CLss/F, Mean","[2]; Day 14, 20 mg once daily",6.58 L/h
same,"Cmax, Geometric mean","[2]; Day 14, 20 mg once daily",137 ng/mL
same,"Cmax, Mean","[2]; Day 14, 20 mg once daily",142 ng/mL
same,"Ctrough, Geometric mean","[2]; Day 14, 20 mg once daily",69.9 ng/mL
same,"Ctrough, Mean","[2]; Day 14, 20 mg once daily",73.3 ng/mL
same,"tmax, median","[2]; Day 14, 20 mg once daily",3.00 h
same,half-life,"[2]; both sexes, human, oral, 5 mg, Day 14, 5 mg once daily, read-out: t1/2, Geometric mean (converted)",29 h
same,half-life,"[2]; both sexes, human, oral, 5 mg, Day 14, 5 mg once daily, read-out: t1/2, Mean (converted)",29.3 h
same,half-life,"[2]; both sexes, human, oral, 10 mg, Day 14, 10 mg once daily, read-out: t1/2, Geometric mean (converted)",31.2 h
same,half-life,"[2]; both sexes, human, oral, 10 mg, Day 14, 10 mg once daily, read-out: t1/2, Mean (converted)",31.3 h
same,half-life,"[2]; both sexes, human, oral, 20 mg, Day 14, 20 mg once daily, read-out: t1/2, Geometric mean (converted)",34.5 h
same,half-life,"[2]; both sexes, human, oral, 20 mg, Day 14, 20 mg once daily, read-out: t1/2, Mean (converted)",35 h
same,CL renal,"[2]; both sexes, human, urine and plasma, oral, After 14 once-daily doses, 5-20 mg, read-out: Mean CLR(0-24)",24.8 to 34.5 mL/min
same,effect of age and gender on accumulation,[2]; [3],neither age nor gender affected accumulation
same,time to steady state,[2]; [3],≤ 5 days
